Reference: US20250213645A1, “PHARMACEUTICAL COMPOSITION FOR MODULATING IMMUNE RESPONSE” (L-BASE CO., LTD., priority 2021, published 2025)
Where a SMILES comes first, the peptide text is derived from it. Where no end group is shown, it is not given here.

Legend:
CXCL10 = CXCL10 mRNA expression in tumor tissue by real-time PCR; type: in vivo, mouse; conditions: relative to control, 2^-ΔΔCt method; FIG. 12
Procedure: After administering the cancer immunotherapy drug and the compound of the present invention alone or in combination to a syngeneic mouse model produced using CT26 cells in which CAGE expression was induced, tumor tissue was isolated from each subject. RNA was extracted from the obtained tumor tissue, cDNA was synthesized, and then an mRNA expression level of the CXCL10 gene was measured through real-time PCR. For each mRNA, a relative expression level compared to the control was calculated through the 2^−ΔΔ^Ct method.

[1] = tested on: CT26 cancer cells in which CAGE expression was induced; experiment: Anticancer efficacy of compound and anti-PD-1, alone or combined, in syngeneic mouse model; type: in vivo; conditions: for absolute weight of the tumor: tumor removed on day 15, compound 10 mpk i.v. every 2 days, anti-PD-1 10 mg/kg i.p. every 3 days; for tumor volume (tumor growth): vs control, compound 10 mpk intravenously every 2 days, anti-PD-1 10 mg/kg intraperitoneally every 3 days, up to day 15
Procedure: (§1) CT26 cancer cells in which CAGE expression was induced were mixed with Matrigel in a ratio of 1:1, and 200 μL of the cell mixture was injected into a female BALB/c mouse at a concentration of 1×10^6 cells/mouse to produce a syngeneic mouse model. After cell inoculation was completed, when the volume of the formed tumor reached 70 to 120 mm^3, groups were randomly separated and drug administration was performed. A cancer immunotherapy drug (anti-PD-1) was intraperitoneally administered at intervals of 3 days at a concentration of 10 mg/kg (mpk), and the compounds according to the present invention, AQTGTGKT, 3-PhPh-AQTGTGKT, and naphthyl-AQTGTGKT, were administered intravenously at intervals of 2 days at a concentration of 10 mpk. The size of the tumor was measured twice a week to calculate a tumor volume, and the weight of a subject was also measured. On day 15 after the start of administration, the tumor was removed, and the absolute weight was measured.

[2] = tested on: CT26 cancer cells in which CAGE expression was induced; experiment: Overall survival (OS) period, Kaplan Meier analysis, syngeneic mouse model; type: in vivo; conditions: for 39 days, 3-PhPh-AQTGTGKT 10 mpk i.v. every 2 days, anti-CTLA4 5 mpk, anti-PD-1 10 mpk every 3 days
Procedure: Next, an overall survival (OS) period according to the single or combined administration of the compound of the present invention and the cancer immunotherapy drug was compared. CT26 cancer cells in which CAGE expression was induced were mixed with Matrigel in a ratio of 1:1, and 200 μL of the cell mixture was injected into a female BALB/c mouse at a concentration of 1×10^6 cells/mouse to produce a syngeneic mouse model. After cell inoculation was completed, when the volume of the formed tumor reached 70 to 120 mm^3, groups were randomly separated and drug administration was performed. The cancer immunotherapy drug (anti-CTLA4) was administered at intervals of 3 days at a concentration of 5 mpk, and the compound of the present invention (3-PhPh-AQTGTGKT) was intravenously administered at intervals of 2 days at a concentration of 10 mpk, and the survival rate of the subjects was analyzed using Kaplan Meier analysis.
Subsequently, the effect of the coadministration of the compound of the present invention and a different cancer immunotherapy drug on the survival rate of subjects was confirmed. CT26 cancer cells in which CAGE expression was induced were mixed with Matrigel in a ratio of 1:1, and 200 μL of the cell mixture was injected into a female BALB/c mouse at a concentration of 1×10^6 cells/mouse to produce a syngeneic mouse model. […]

T cells or macrophages = type: in vivo, mouse
Procedure: (§2) After administering the cancer immunotherapy drug and the compound of the present invention alone or in combination to a syngeneic mouse model produced using CT26 cells in which CAGE expression was induced, tumor tissue was isolated from each subject. The obtained tumor tissue was made into a paraffin block and then sectioned, and histological analysis was performed by performing H&E staining and microscopic observation on tissue slides. […] Fluorescent images were taken at 20× magnification using a confocal microscope, and the number of T cells and macrophages (M2- and M1-type macrophages) on the entire screen was then measured and analyzed.

[3] = tested on: CT26 cancer cells in which CAGE expression was induced; experiment: Anticancer efficacy of 3-PhPh-AQTGTGKT and anti-CTLA4, alone or combined, in syngeneic mouse model; type: in vivo; conditions: 3-PhPh-AQTGTGKT 10 mpk i.v. every 2 days, anti-CTLA4 5 mpk i.p. every 3 days
Procedure: as §1, with “(anti-CTLA4)” for “(anti-PD-1)”, “5 mpk,” for “10 mg/kg (mpk),”, “compound of” for “compounds according to”, “invention (3-PhPh-AQTGTGKT) was intravenously” for “invention, AQTGTGKT, 3-PhPh-AQTGTGKT, and naphthyl-AQTGTGKT, were”, “administered” for “administered intravenously”

[4] = tested on: CT26 cells in which CAGE expression was induced; experiment: Histological analysis of tumor tissue by H&E staining; type: in vivo, mouse; conditions: single or combined administration; FIG. 11A
Procedure: as §2

Molecule	CXCL10 mRNA expression level in tumor tissue (CXCL10)	absolute weight of the tumor [1]	tumor volume (tumor growth) [1]	subjects survived ([2]; of 10 subjects, control 2 survived)	subjects died ([2]; control 8 died)	frequency of M2 macrophages (CD206) in tumor tissue (T cells or macrophages; FIG. 11C)	frequency of total macrophages (F4/80) in tumor tissue (T cells or macrophages; FIG. 11C)	frequency of cytotoxic T cells (CD8 T cells) in tumor tissue (T cells or macrophages; mouse, in vivo)	frequency of total T cells (CD4 T cells) in tumor tissue (T cells or macrophages; vs control or single administration groups, FIG. 11B)	tumor growth (tumor volume) ([3]; from day 11)	absolute weight of the tumor ([3]; tumor removed on day 15)	tumor cell death in tumor tissue (H&E staining) [4]
C[C@H](NC(=O)c1cccc(-c2ccccc2)c1)C(=O)N[C@@H](CCC(N)=O)C(=O)N[C@H](C(=O)NCC(=O)N[C@H](C(=O)NCC(=O)N[C@@H](CCCCN)C(=O)N[C@H](C(=O)O)[C@@H](C)O)[C@@H](C)O)[C@@H](C)O [3-PhPh-AQTGTGKT] (HELM PEPTIDE1{[O=C(c1cccc(-c2ccccc2)c1)[*:2]].A.Q.T.G.T.G.K.T}$$$$V2.0)	similar	lower than that of the control	tumor growth began to decrease compared to the control	3	7 out of 10 subjects	no significant difference between the frequencies of macrophages	no significant difference between the frequencies of macrophages	no significant differences in the frequency of immune cells	no significant differences in the frequency of immune cells	statistically significant decrease in tumor growth	lower than that of the control	some areas where tumor cells were killed were observed
C[C@H](NC(=O)c1ccc2ccccc2c1)C(=O)N[C@@H](CCC(N)=O)C(=O)N[C@H](C(=O)NCC(=O)N[C@H](C(=O)NCC(=O)N[C@@H](CCCCN)C(=O)N[C@H](C(=O)O)[C@@H](C)O)[C@@H](C)O)[C@@H](C)O [naphthyl-AQTGTGKT, Naphthyl-AQTGTGKT] (HELM PEPTIDE1{[O=C(c1ccc2ccccc2c1)[*:2]].A.Q.T.G.T.G.K.T}$$$$V2.0)		no significant difference between the tumor weight	no significant difference in tumor volume									
AQTGTGKT [AQTGTGKT]		no significant difference between the tumor weight	no significant difference in tumor volume									
